# Assay results taken from patent US11596639B2, “Substituted indole Mcl-1 inhibitors” (Vanderbilt University, priority 2016, dated 2023).
# Like-named read-outs stand apart in the source and are kept apart here.
# How the values were obtained:
# [1] = biological target: Mcl-1 (Homo sapiens (Human), UniProt Q07820); test: Fluorescence polarization anisotropy (FPA) competition assay, FITC-Bak or FITC-Bim BH3 peptide; format: binding; settings: read-out: Ki for Inhibition of Mcl-1 by FPA assay
# [2] = test system: H929 human cancer cell lines; test: Cellular viability / proliferation (Cell TiterGlo, 72 h); format: cell-based
# Summary of the method: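 Top dose 50 μM, serially diluted 2-fold, applied one day after seeding (1,000 cells/well, 10% FBS), DMSO below 1%.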
# [3] = Homo sapiens, NCI-H929, 72 h, read-out: GI50 on cellular proliferation of H929 human cancer cell lines, H929 cells, 72 h, Cell TiterGlo, 10% FBS
# [4] = H929 cells, 72 h, Cell TiterGlo, 10% FBS, read-out: GI50 on cellular proliferation of H929 human cancer cell lines
# Chain of Mcl-1 (Q07820 172-327): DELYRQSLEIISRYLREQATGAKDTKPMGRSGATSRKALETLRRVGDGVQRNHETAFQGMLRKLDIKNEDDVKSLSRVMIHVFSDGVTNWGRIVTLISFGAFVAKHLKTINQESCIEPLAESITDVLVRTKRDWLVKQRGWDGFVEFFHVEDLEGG
Compound,Ki [1] [nM],"GI50 [2, 3] [nM]","GI50 [2, 4] [nM]"
"Cc1cc(OCCCc2c3n(c4c(-c5c(C)nn(CC6CCOCC6)c5C)c(Cl)ccc24)[C@H](C)CN(c2cccc4c(C(=O)O)cn(C)c24)C3=O)cc(C)c1Cl [Example 128, (R)-7-(7-chloro-10-(3-(4-chloro-3,5-dimethylphenoxy)propyl)-6-(3,5-dimethyl-1-((tetrahydro-2H-pyran-4-yl)methyl)-1H-pyrazol-4-yl)-4-methyl-1-oxo-3,4-dihydropyrazino[1,2-a]indol-2(1H)-yl)-1-methyl-1H-indole-3-carboxylic acid]",< 1,410,
"Cc1cc(OCCCc2c3n(c4c(-c5c(C)nn(C)c5C)c(Cl)ccc24)[C@H](C)CN(c2cn(C)c4cc(-c5nn[nH]n5)ccc24)C3=O)cc(C)c1Cl [Example 236, (R)-7-chloro-10-(3-(4-chloro-3,5-dimethylphenoxy)propyl)-4-methyl-2-(1-methyl-6-(2H-tetrazol-5-yl)-1H-indol-3-yl)-6-(1,3,5-trimethyl-1H-pyrazol-4-yl)-3,4-dihydropyrazino[1,2-a]indol-1(2H)-one]",< 1,1100,
"Cc1cc(OCCCc2c3n(c4c(-c5c(C)nn(C)c5C)c(Cl)ccc24)[C@H](C)CN(c2cccc4cc(C(=O)O)n(C(C)c5ccccn5)c24)C3=O)cc(C)c1Cl (stereo partly drawn) [Example 386, 7-((R)-7-Chloro-10-(3-(4-chloro-3,5-dimethylphenoxy)propyl)-4-methyl-1-oxo-6-(1,3,5-trimethyl-1H-pyrazol-4-yl)-3,4-dihydropyrazino[1,2-a]indol-2(1H)-yl)-1-(1-(pyridin-2-yl)ethyl)-1H-indole-2-carboxylic acid]",3.2,3100,
"CCn1cc(C(=O)O)c2cccc(N3C[C@@H](C)n4c(c(CCCOc5cc(C)c(Cl)c(C)c5)c5ccc(Cl)c(-c6c(C)nn(C)c6C)c54)C3=O)c21 [Example 103, (R)-7-(7-Chloro-10-(3-(4-chloro-3,5-dimethylphenoxy)propyl)-4-methyl-1-oxo-6-(1,3,5-trimethyl-1H-pyrazol-4-yl)-3,4-dihydropyrazino[1,2-a]indol-2(1H)-yl)-1-ethyl-1H-indole-3-carboxylic acid]",< 1,480,
"Cc1cc(OCCCc2c3n(c4c(-c5c(C)n[nH]c5C)c(Cl)ccc24)CCCN(c2cccc4cccnc24)C3=O)cc(C)c1Cl [Example 150, 8-Chloro-11-(3-(4-chloro-3,5-dimethylphenoxy)propyl)-7-(3,5-dimethyl-1H-pyrazol-4-yl)-2-(quinolin-8-yl)-2,3,4,5-tetrahydro-1H-[1,4]diazepino[1,2-a]indol-1-one]",13,,5100
"Cc1cc(OCCCc2c3n(c4c(-c5c(C)nn(C)c5C)c(Cl)ccc24)[C@H](C)CN(c2cc(C(=O)O)nc4c2ccn4C)C3=O)cc(C)c1Cl [Example 167, (R)-4-(7-chloro-10-(3-(4-chloro-3,5-dimethylphenoxy)propyl)-4-methyl-1-oxo-6-(1,3,5-trimethyl-1H-pyrazol-4-yl)-3,4-dihydropyrazino[1,2-a]indol-2(1H)-yl)-1-methyl-1H-pyrrolo[2,3-b]pyridine-6-carboxylic acid]",< 1,4100,
"CCn1cc(N2C[C@@H](C)n3c(c(CCCOc4cc(C)c(Cl)c(C)c4)c4ccc(Cl)c(-c5c(C)nn(C)c5C)c43)C2=O)c2ccc(C(=O)O)cc21 [Example 104, (R)-3-(7-Chloro-10-(3-(4-chloro-3,5-dimethylphenoxy)propyl)-4-methyl-1-oxo-6-(1,3,5-trimethyl-1H-pyrazol-4-yl)-3,4-dihydropyrazino[1,2-a]indol-2(1H)-yl)-1-ethyl-1H-indole-6-carboxylic acid]",< 1,570,
"Cc1cc(OCCCc2c3n(c4c(-c5c(C)ncnc5C)c(Cl)ccc24)CCCN(c2cc(C(=O)O)c4ccn(C)c4c2)C3=O)cc(C)c1Cl [Example 130, 6-[8-Chloro-11-[3-(4-chloro-3,5-dimethyl-phenoxy)propyl]-7-(4,6-dimethylpyrimidin-5-yl)-1-oxo-4,5-dihydro-3H-[1,4]diazepino[1,2-a]indol-2-yl]-1-methyl-indole-4-carboxylic acid]",< 1,2400,
"COCCn1cc(N2C[C@@H](C)n3c(c(CCCOc4cc(C)c(Cl)c(C)c4)c4ccc(Cl)c(-c5c(C)nn(C)c5C)c43)C2=O)c2cc(C(=O)O)ccc21 [Example 268, (R)-3-(7-chloro-10-(3-(4-chloro-3,5-dimethylphenoxy)propyl)-4-methyl-1-oxo-6-(1,3,5-trimethyl-1H-pyrazol-4-yl)-3,4-dihydropyrazino[1,2-a]indol-2(1H)-yl)-1-(2-methoxyethyl)-1H-indole-5-carboxylic acid]",< 1,410,
"Cc1cc(N2C[C@@H](C)n3c(c(CCCOc4cc(C)c(Cl)c(C)c4)c4ccc(Cl)c(-c5c(C)nn(C)c5C)c43)C2=O)c2c(c1)c(C)c(C(=O)O)n2C [Example 336, (R)-7-(7-Chloro-10-(3-(4-chloro-3,5-dimethylphenoxy)propyl)-4-methyl-1-oxo-6-(1,3,5-trimethyl-1H-pyrazol-4-yl)-3,4-dihydropyrazino[1,2-a]indol-2(1H)-yl)-1,3,5-trimethyl-1H-indole-2-carboxylic acid]",< 1,250,
"Cc1cc(OCCCc2c3n(c4c(-c5c(C)nn(C)c5C)c(Cl)ccc24)[C@H](C)CN(c2cccc4c(C(=O)O)nn(C)c24)C3=O)cc(C)c1Cl [Example 59, (R)-7-(7-chloro-10-(3-(4-chloro-3,5-dimethylphenoxy)propyl)-4-methyl-1-oxo-6-(1,3,5-trimethyl-1H-pyrazol-4-yl)-3,4-dihydropyrazino[1,2-a]indol-2(1H)-yl)-1-methyl-1H-indazole-3-carboxylic acid]",< 1,280,
"Cc1cc(OCCCc2c3n(c4c(-c5c(C)nn(C)c5C)c(Cl)ccc24)[C@H](C)CN(c2ccnc4ccc(-c5nnn(C)n5)cc24)C3=O)cc(C)c1Cl [Example 425, (R)-7-Chloro-10-(3-(4-chloro-3,5-dimethylphenoxy)propyl)-4-methyl-2-(6-(2-methyl-2H-tetrazol-5-yl)quinolin-4-yl)-6-(1,3,5-trimethyl-1H-pyrazol-4-yl)-3,4-dihydropyrazino[1,2-a]indol-1(2H)-one]",1.8,1400,
"Cc1cc(N2C[C@@H](C)n3c(c(CCCOc4cc(C)c(Cl)c(C)c4)c4ccc(Cl)c(-c5c(C)ncnc5C)c43)C2=O)c2c(c1)cc(C(N)=O)n2C [Example 376, (R)-7-(7-Chloro-10-(3-(4-chloro-3,5-dimethylphenoxy)propyl)-6-(4,6-dimethylpyrimidin-5-yl)-4-methyl-1-oxo-3,4-dihydropyrazino[1,2-a]indol-2(1H)-yl)-1,5-dimethyl-1H-indole-2-carboxamide]",6.5,750,
"Cc1cc(OCCCc2c3n(c4c(-c5c(C)nn(C)c5C)c(Cl)ccc24)[C@H](C)CN(c2ccc(OCc4ccccc4)c4c2cc(C(=O)O)n4C)C3=O)cc(C)c1Cl [Example 299, (P, R)-7-(benzyloxy)-4-(7-chloro-10-(3-(4-chloro-3,5-dimethylphenoxy)propyl)-4-methyl-1-oxo-6-(1,3,5-trimethyl-1H-pyrazol-4-yl)-3,4-dihydropyrazino[1,2-a]indol-2(1H)-yl)-1-methyl-1H-indole-2-carboxylic acid]",2,,2300
"Cc1cc(N2C[C@@H](C)n3c(c(CCCOc4cc(C)c(Cl)c(C)c4)c4ccc(Cl)c(-c5c(C)nn(C)c5C)c43)C2=O)c2c(c1)cc(C(=O)O)n2Cc1ccccn1 [Example 295, 7-[(4R)-7-chloro-10-[3-(4-chloro-3,5-dimethyl-phenoxy)propyl]-4-methyl-1-oxo-6-(1,3,5-trimethylpyrazol-4-yl)-3,4-dihydropyrazino[1,2-a]indol-2-yl]-5-methyl-1-(2-pyridylmethyl)indole-2-carboxylic acid]",< 1,< 200,
"Cc1cc(OCCCc2c3n(c4c(-c5c(C)nn(C)c5C)c(Cl)ccc24)[C@H](C)CN(c2cn(Cc4ccccn4)c4cc(C(=O)O)ccc24)C3=O)cc(C)c1Cl [Example 338, (R)-3-(7-Chloro-10-(3-(4-chloro-3,5-dimethylphenoxy)propyl)-4-methyl-1-oxo-6-(1,3,5-trimethyl-1H-pyrazol-4-yl)-3,4-dihydropyrazino[1,2-a]indol-2(1H)-yl)-1-(pyridin-2-ylmethyl)-1H-indole-6-carboxylic acid]",< 1,2000,
"Cc1cc(OCCCc2c3n(c4c(-c5c(C)nn(C)c5C)c(Cl)ccc24)[C@H](C)CN(c2cn(C)c4ccc([N+](=O)[O-])cc24)C3=O)cc(C)c1Cl [Example 223, (4R)-7-chloro-10-[3-(4-chloro-3,5-dimethyl-phenoxy)propyl]-4-methyl-2-(1-methyl-5-nitro-indol-3-yl)-6-(1,3,5-trimethylpyrazol-4-yl)-3,4-dihydropyrazino[1,2-a]indol-1-one]",1.1,5000,
"Cc1cc(N2C[C@@H](C)n3c(c(CCCOc4cc(C)c(Cl)c(C)c4)c4ccc(Cl)c(-c5c(C)nc(CN6CCN(C)CC6)nc5C)c43)C2=O)c2c(c1)cc(C(=O)O)n2C [Example 426, (R)-7-(7-Chloro-10-(3-(4-chloro-3,5-dimethylphenoxy)propyl)-6-(4,6-dimethyl-2-((4-methylpiperazin-1-yl)methyl)pyrimidin-5-yl)-4-methyl-1-oxo-3,4-dihydropyrazino[1,2-a]indol-2(1H)-yl)-1,5-dimethyl-1H-indole-2-carboxylic acid]",< 1,250,
